# Measured values published in ChEMBL document CHEMBL5154647, “Discovery of seneciobipyrrolidine derivatives for the amelioration of glucose homeostasis disorders through 4E-BP1/Akt/AMPK signaling activation” (Eur J Med Chem, 2022).
# Activity calls are given as the source filed them. No cut-off for these calls is given here.
# Assays:
# L6 [1] = experiment: Induction of glucose uptake in rat L6 myoblasts at 20 uM measured after 2 hrs by liquid scintillation counter; assay type: functional
# [2] = Half life in Sprague-Dawley rat at 5 mg/kg, iv measured upto 24 hrs by LC/MS/MS analysis; assay type: ADME, organism-based; settings: in vivo
# L6 [3] = experiment: Induction of glucose uptake in rat L6 myoblasts assessed as 2-DG concentration at 25 uM preincubated for 3 hrs and in presence of 2-deoxyglucose measured after 1 hrs by DNTB reagent based colorimetric assay; assay type: functional; settings: time 4 hrs
# [4] = Tmax in Sprague-Dawley rat at 20 mg/kg, po measured upto 10 hrs by LC/MS/MS analysis; assay type: ADME, organism-based; settings: in vivo
# [5] = Half life in Sprague-Dawley rat at 20 mg/kg, po measured upto 10 hrs by LC/MS/MS analysis; assay type: ADME, organism-based; settings: in vivo
# [6] = AUC (0 to t) in Sprague-Dawley rat at 20 mg/kg, po measured upto 10 hrs by LC/MS/MS analysis; assay type: ADME, organism-based; design: time < 10 hrs, dose 20 mg/kg, route po; settings: in vivo
# [7] = AUC (0 to t) in Sprague-Dawley rat at 5 mg/kg, iv measured upto 24 hrs by LC/MS/MS analysis; assay type: ADME, organism-based; design: dose 5 mg/kg, time < 24 hrs, route iv; settings: in vivo
# [8] = Cmax in Sprague-Dawley rat at 20 mg/kg, po measured upto 10 hrs by LC/MS/MS analysis; assay type: ADME, organism-based; design: time < 10 hrs, dose 20 mg/kg, route po; settings: in vivo
# [9] = Oral bioavailability in Sprague-Dawley rat at 20 mg/kg measured upto 10 hrs by LC/MS/MS analysis; assay type: ADME, organism-based; settings: in vivo
# [10] = Cmax in Sprague-Dawley rat at 5 mg/kg, iv measured upto 24 hrs by LC/MS/MS analysis; assay type: ADME, organism-based; design: dose 5 mg/kg, time < 24 hrs, route iv; settings: in vivo
# [11] = Microsomal stability in monkey liver microsomes assessed as half life preincubated with NADPH measured upto 60 mins by LC-MS analysis; assay type: ADME, Macaca mulatta, Microsome; settings: rhesus monkey
# [12] = Microsomal stability in mouse liver microsomes assessed as half life preincubated with NADPH measured upto 60 mins by LC-MS analysis; assay type: ADME, Microsome
# L6 [13] = experiment: Induction of glucose uptake in rat L6 myoblasts preincubated for 3 hrs with compound and in presence of 2-deoxyglucose measured after 1 hrs by DNTB reagent based colorimetric assay; assay type: functional, cell-based
# [14] = target: Eukaryotic translation initiation factor 4E-binding protein 1 (Rattus norvegicus) (UniProt Q62622); experiment: Time dependent activation of 4E-BP1 in rat L6 myoblasts assessed as increase in 4E-BP1 protein level at 10 to 180 min by western blot analysis; assay type: cell-based; settings: filed as activator, time 10-180 min, TDE = time-dependent effect
# [15] = target: T1, AMP-activated protein kinase, AMPK (Rattus norvegicus) (UniProt P54645+Q09137+P80386+P80385+Q9QZH4+Q6V7V4+D4A7E4); experiment: Activation of AMPK in rat L6 myoblasts assessed as increase in AMPK phosphorylation at Thr172 at 0.1 to 25 uM by western blot analysis; assay type: cell-based; settings: filed as activator, dose 0.1-25 µM, DDE = dose-dependent effect
# [16] = target: T1, AMP-activated protein kinase, AMPK (Rattus norvegicus); experiment: Time dependent activation of AMPK in rat L6 myoblasts assessed as increase in AMPK phosphorylation at Thr172 at 10 to 180 min by western blot analysis; assay type: cell-based; settings: filed as activator, time 10-180 min, TDE = time-dependent effect
# [17] = Toxicity in db/db mouse assessed as decrease in body weight at 100 mg/kg, po administered for 21 days; assay type: organism-based; settings: in vivo, 504 h, time 21 day
# [18] = Toxicity in db/db mouse assessed as increase in body weight at 75 mg/kg, po administered for 21 days; assay type: organism-based; settings: in vivo, 504 h, time 21 day
# Mus musculus [19] = experiment: Improvement in glucose tolerance in db/db mouse assessed as reduction in blood glucose level at 300 mg/kg, po measured after 20 days; assay type: functional, organism-based; settings: time 20.0 day
# Mus musculus [20] = experiment: Antidiabetic activity in db/db mouse assessed as reduction in blood glucose level at 100 mg/kg, po bid measured after 6 hrs; assay type: functional; design: scale not given: the % may be the effect or the level left
# [21] = Toxicity in db/db mouse assessed as reduction in total cholesterol at 75 to 100 mg/kg, po administered for 21 days; assay type: organism-based; settings: in vivo, 504 h, dose 75-100 mg/kg, time 21 day
# Mus musculus [22] = experiment: Antidiabetic activity in db/db mouse assessed as reduction in random blood glucose level at 100 mg/kg, po bid measured up to 21 days; assay type: functional; design: scale not given: the % may be the effect or the level left; settings: time <= 21 day
# Mus musculus [23] = experiment: Improvement in glucose tolerance in db/db mouse assessed as reduction in blood glucose level at 100 mg/kg, po measured after 20 days; assay type: functional, organism-based; settings: time 20.0 day
# [24] = Toxicity in db/db mouse assessed as effect on muscle tissue morphology at 100 mg/kg, po bid administered for 21 days by H and E staining based microscopic analysis; assay type: organism-based; settings: in vivo, 504 h, time 21 day
# L6 [25] = experiment: Activation of Akt in rat L6 myoblasts assessed as increase in AKT phosphorylation at Ser473 at 25 uM measured after 30 mins by western blot analysis; assay type: cell-based; settings: filed as activator
# [26] = Toxicity in db/db mouse assessed as effect on pancreas morphology at 100 mg/kg, po bid administered for 21 days by H and E staining based microscopic analysis; assay type: organism-based; settings: in vivo, 504 h, time 21 day
# [27] = target: T1, AMP-activated protein kinase, AMPK (Rattus norvegicus); experiment: Activation of AMPK in rat L6 myoblasts assessed as increase in AMPK phosphorylation at Thr172 at 25 uM measured after 30 mins by western blot analysis; assay type: cell-based; settings: filed as activator
# [28] = target: Eukaryotic translation initiation factor 4E-binding protein 1 (Rattus norvegicus) (UniProt Q62622); experiment: Activation of 4E-BP1 in rat L6 myoblasts assessed as increase in 4E-BP1 protein level at 0.1 to 25 uM by western blot analysis; assay type: cell-based; settings: filed as activator, dose 0.1-25 µM, DDE = dose-dependent effect
# Pancreas = experiment: Effect on 4E-BP1 in db/db mouse pancreas assessed as increase in 4E-BP1 protein level at 100 mg/kg, po bid administered for 21 days by immunohistochemical staining analysis; assay type: functional, organism-based; settings: time 21.0 day
# [29] = target: T1, AMP-activated protein kinase, AMPK (Rattus norvegicus); experiment: Activation of AMPK in rat L6 myoblasts assessed as increase in AMPK protein level at 25 uM measured after 30 mins by western blot analysis; assay type: cell-based; settings: filed as activator
# L6 [30] = experiment: Activation of Akt in rat L6 myoblasts assessed as increase in Akt protein level at 25 uM measured after 30 mins by western blot analysis; assay type: cell-based; settings: filed as activator
# Mus musculus [31] = experiment: Antidiabetic activity in db/db mouse assessed as reduction in fasting blood glucose level at 75 mg/kg, po bid measured up to 21 days; assay type: functional; design: scale not given: the % may be the effect or the level left; settings: time <= 21 day
# Mus musculus [32] = experiment: Antidiabetic activity in db/db mouse assessed as reduction in random blood glucose level at 75 mg/kg, po bid measured up to 21 days; assay type: functional; design: scale not given: the % may be the effect or the level left; settings: time <= 21 day
# Mus musculus [33] = experiment: Antidiabetic activity in db/db mouse assessed as reduction in fasting blood glucose level at 100 mg/kg, po bid measured up to 21 days; assay type: functional; design: scale not given: the % may be the effect or the level left; settings: time <= 21 day
# [34] = Toxicity in db/db mouse assessed as reduction in triglyceride at 100 mg/kg, po administered for 21 days; assay type: organism-based; settings: in vivo, 504 h, time 21 day
# [35] = Toxicity in db/db mouse assessed as reduction in triglyceride at 75 mg/kg, po administered for 21 days; assay type: organism-based; settings: in vivo, 504 h, time 21 day
# L6 [36] = experiment: Time dependent activation of Akt in rat L6 myoblasts assessed as increase in AKT phosphorylation at Ser473 at 10 to 180 min by western blot analysis; assay type: cell-based; settings: filed as activator, time 10-180 min, TDE = time-dependent effect
# Muscle tissue = experiment: Effect on 4E-BP1 in db/db mouse muscle tissue assessed as increase in 4E-BP1 protein level at 100 mg/kg, po bid administered for 21 days by immunohistochemical staining analysis; assay type: functional, organism-based; settings: time 21.0 day
# [37] = target: Eukaryotic translation initiation factor 4E-binding protein 1 (Rattus norvegicus) (UniProt Q62622); experiment: Activation of 4E-BP1 in rat L6 myoblasts assessed as increase in 4E-BP1 protein level at 25 uM measured after 30 mins by western blot analysis; assay type: cell-based; settings: filed as activator
# [38] = Toxicity in db/db mouse liver assessed as reduction of fat accumulation in liver at 100 mg/kg, po bid administered for 21 days by H and E staining based microscopic analysis; assay type: organism-based; settings: in vivo, 504 h, time 21 day
# L6 [39] = experiment: Activation of Akt in rat L6 myoblasts assessed as increase in AKT phosphorylation at Ser473 at 0.1 to 25 uM by western blot analysis; assay type: cell-based; settings: filed as activator, dose 0.1-25 µM, DDE = dose-dependent effect
# Liver = experiment: Effect on 4E-BP1 in db/db mouse liver assessed as increase in 4E-BP1 protein level at 100 mg/kg, po bid administered for 21 days by immunohistochemical staining analysis; assay type: functional, organism-based; settings: time 21.0 day
# Sequence of Eukaryotic translation initiation factor 4E-binding protein 1 (Rattus norvegicus) (Q62622 whole entry): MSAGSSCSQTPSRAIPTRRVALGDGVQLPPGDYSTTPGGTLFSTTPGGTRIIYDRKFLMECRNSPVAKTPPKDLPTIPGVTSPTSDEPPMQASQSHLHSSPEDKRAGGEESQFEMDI
smiles,measurement,setting,value
COc1ccc2c(c1)[C@H]1[C@H](CCN1C(=O)Cc1ccc(C)cc1)[C@H]1CCCN21 (racemic),Activity,L6 [1],101.2%
COc1ccc2c(c1)[C@H]1[C@H](CCN1Cc1ccc3c(ccn3C)c1)[C@H]1CCCN21 (racemic),half-life,[2],7.6 h
same,Activity,L6 [1],68.7%
same,Activity,L6 [3],23.4 pmol/µL
same,Tmax,[4],0.4 h
same,half-life,[5],11.9 h
same,AUC(0-t) at 10 h,[6],561 ng·h/mL
same,AUC(0-t) at 24 h,[7],1480 ng·h/mL
same,Cmax,[8],307 ng/mL
same,bioavailability,[9],9.5%
same,Cmax,[10],981 ng/mL
Cc1ccc(N2CC[C@@H]3[C@@H]4CCCN4c4ccc(C)cc4[C@@H]32)cc1 (racemic),Activity,L6 [1],63.5%
Fc1ccc(N2CC[C@@H]3[C@@H]4CCCN4c4ccc(F)cc4[C@@H]32)cc1 (racemic),Activity,L6 [1],58.3%
NC(=O)Cc1ccc(N2CC[C@@H]3[C@H]4CCCN4c4ccc(CC(N)=O)cc4[C@@H]32)cc1 (racemic),half-life,[11],0.578 h
same,half-life,[12],3.12 h
COc1ccc2c(c1)[C@H]1[C@H](CCN1C(=O)c1ccc3ccccc3c1)[C@H]1CCCN21 (racemic),Activity,L6 [1],172.4%
same,Activity,L6 [3],52.9 pmol/µL
same,EC50,L6 [13],34.5 µM
COc1ccc2c(c1)[C@H]1[C@H](CCN1CCc1ccc(Cl)cc1)[C@H]1CCCN21 (racemic),Activity,[14],Tde
same,half-life,[2],3.9 h
same,Activity,[15],Dde
same,Activity,[16],Tde
same,Activity,[17],Toxic
same,Activity,[18],Non-Toxic
same,Activity,Mus musculus [19],Active
same,Activity,Mus musculus [20],38.1%
same,Activity,[21],Toxic
same,Activity,L6 [1],215.6%
same,Activity,Mus musculus [22],79%
same,Activity,Mus musculus [23],Active
same,Activity,[24],Non-Toxic
same,Activity,L6 [3],81.9 pmol/µL
same,EC50,L6 [13],2.7 µM
same,Tmax,[4],0.5 h
same,Activity,L6 [25],Active
same,Activity,[26],Non-Toxic
same,half-life,[5],12.4 h
same,AUC(0-t) at 10 h,[6],469 ng·h/mL
same,AUC(0-t) at 24 h,[7],588 ng·h/mL
same,Cmax,[8],141 ng/mL
same,bioavailability,[9],19.9%
same,Activity,[27],Active
same,Activity,[28],Dde
same,Activity,Pancreas,Active
same,Activity,[29],Active
same,Activity,L6 [30],Active
same,Activity,Mus musculus [31],65.5%
same,Activity,Mus musculus [32],77.2%
same,Activity,Mus musculus [33],62.1%
same,Activity,[34],Toxic
same,Activity,[35],Toxic
same,Activity,L6 [36],Tde
same,Activity,Muscle tissue,Active
same,fold change (FC),[37],2
same,Cmax,[10],542 ng/mL
same,Activity,[38],Toxic
same,Activity,L6 [39],Dde
same,Activity,Liver,Active
COc1ccc(N2CC[C@@H]3[C@@H]4CCCN4c4cc(O)c(OC)cc4[C@@H]32)cc1O (racemic),Activity,L6 [1],70.6%
COc1ccc2c(c1)[C@H]1[C@H](CCN1Cc1ccccc1)[C@H]1CCCN21 (racemic),Activity,L6 [1],66.4%
same,Activity,L6 [3],51.6 pmol/µL
COc1ccc2c(c1)[C@H]1[C@H](CCN1C(=O)c1ccc(C#N)cc1)[C@H]1CCCN21 (racemic),Activity,L6 [1],71.4%
same,Activity,L6 [3],5.5 pmol/µL
COc1ccc2c(c1)[C@H]1[C@H](CCN1Cc1ccc(Cl)cc1)[C@H]1CCCN21 (racemic),Activity,L6 [1],22.3%
Cc1ccc(N2CC[C@@H]3[C@H]4CCCN4c4ccc(C)cc4[C@@H]32)cc1 (racemic),Activity,L6 [1],130.9%
same,Activity,L6 [3],13.1 pmol/µL
COc1ccc(CN2CC[C@@H]3[C@H]4CCCN4c4ccc(OC)cc4[C@@H]32)cc1 (racemic),Activity,L6 [1],15%
